Format in all cases: biochemical
Common to all, as to settings: 1 μM of the Example

One experiment concerns the target IRAK1 (Homo sapiens (Human), UniProt P51617). Description: Kinase selectivity, Adapta assay platform.
Another experiment has as its target CLK2 (Homo sapiens (Human), UniProt P49760). Description: Kinase selectivity, Z'-LYTE assay platform.
For another experiment, the target named is AURKB (Aurora B) (Homo sapiens (Human), UniProt Q96GD4). Briefly: Kinase selectivity, Z'-LYTE assay platform.
The target in a further experiment is JAK3 (Homo sapiens (Human), UniProt P52333). Description: Kinase selectivity, Z'-LYTE assay platform.
The next experiment deals with CHEK2 (CHK2) (Homo sapiens (Human), UniProt O96017). Description: Kinase selectivity, Z'-LYTE assay platform.
The next experiment addresses CDK1/cyclin B (Homo sapiens (Human), UniProt P06493). Description: Kinase selectivity, Z'-LYTE assay platform.
In another experiment the target is BRAF V599E (Homo sapiens (Human), UniProt P15056, V600E). Description: Kinase selectivity, Z'-LYTE assay platform.
For a further experiment, the target named is MAPK1 (ERK2) (Homo sapiens (Human), UniProt P28482). Description: Kinase selectivity, Z'-LYTE assay platform.
The target of a further experiment is MAPK8 (JNK1) (Homo sapiens (Human), UniProt P45983). Description: Kinase selectivity, Z'-LYTE assay platform.
In another experiment the target is DYRK1A (Homo sapiens (Human), UniProt Q13627). Briefly: Kinase selectivity, Z'-LYTE assay platform.

The source of these data is patent US9493440B2, “Compounds inhibiting leucine-rich repeat kinase enzyme activity” (Merck Sharp & Dohme Corp., priority 2013, dated 2016).

Chain of CHEK2 (CHK2) (O96017 whole entry): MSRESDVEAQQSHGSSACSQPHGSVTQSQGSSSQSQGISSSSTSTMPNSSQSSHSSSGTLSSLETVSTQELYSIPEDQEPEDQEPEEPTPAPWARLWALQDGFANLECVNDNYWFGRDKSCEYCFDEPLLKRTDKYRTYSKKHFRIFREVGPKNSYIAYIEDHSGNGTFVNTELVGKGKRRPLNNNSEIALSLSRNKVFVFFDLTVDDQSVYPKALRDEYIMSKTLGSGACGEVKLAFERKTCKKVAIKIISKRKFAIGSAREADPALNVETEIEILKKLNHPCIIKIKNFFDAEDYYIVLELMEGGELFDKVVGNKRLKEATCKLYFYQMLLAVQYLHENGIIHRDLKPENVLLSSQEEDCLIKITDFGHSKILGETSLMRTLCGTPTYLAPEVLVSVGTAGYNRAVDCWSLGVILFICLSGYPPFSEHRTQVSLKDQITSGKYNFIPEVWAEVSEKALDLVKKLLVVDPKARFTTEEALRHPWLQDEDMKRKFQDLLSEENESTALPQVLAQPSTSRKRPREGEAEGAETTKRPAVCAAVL
Chain of CDK1/cyclin B (P06493 whole entry): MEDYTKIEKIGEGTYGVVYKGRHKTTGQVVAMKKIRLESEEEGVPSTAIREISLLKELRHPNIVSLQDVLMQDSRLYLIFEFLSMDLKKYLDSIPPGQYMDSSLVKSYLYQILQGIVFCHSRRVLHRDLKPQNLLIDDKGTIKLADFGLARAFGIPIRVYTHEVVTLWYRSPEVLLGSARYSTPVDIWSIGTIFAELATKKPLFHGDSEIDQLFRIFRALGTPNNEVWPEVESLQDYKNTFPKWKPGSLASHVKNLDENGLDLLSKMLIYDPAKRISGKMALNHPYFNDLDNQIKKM
Chain of CDK1/cyclin B (P14635 whole entry partner): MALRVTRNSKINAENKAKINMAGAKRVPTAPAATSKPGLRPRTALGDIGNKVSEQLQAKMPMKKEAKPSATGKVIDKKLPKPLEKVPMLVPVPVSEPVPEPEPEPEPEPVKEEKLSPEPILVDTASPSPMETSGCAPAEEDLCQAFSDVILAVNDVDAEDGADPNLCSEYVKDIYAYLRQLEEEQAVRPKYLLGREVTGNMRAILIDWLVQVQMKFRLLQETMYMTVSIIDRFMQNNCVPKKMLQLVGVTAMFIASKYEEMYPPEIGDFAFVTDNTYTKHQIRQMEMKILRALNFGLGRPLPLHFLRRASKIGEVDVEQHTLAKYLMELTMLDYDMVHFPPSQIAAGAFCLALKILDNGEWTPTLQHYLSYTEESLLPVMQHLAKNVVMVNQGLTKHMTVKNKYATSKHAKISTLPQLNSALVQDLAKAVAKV
Chain of MAPK8 (JNK1) (P45983 whole entry): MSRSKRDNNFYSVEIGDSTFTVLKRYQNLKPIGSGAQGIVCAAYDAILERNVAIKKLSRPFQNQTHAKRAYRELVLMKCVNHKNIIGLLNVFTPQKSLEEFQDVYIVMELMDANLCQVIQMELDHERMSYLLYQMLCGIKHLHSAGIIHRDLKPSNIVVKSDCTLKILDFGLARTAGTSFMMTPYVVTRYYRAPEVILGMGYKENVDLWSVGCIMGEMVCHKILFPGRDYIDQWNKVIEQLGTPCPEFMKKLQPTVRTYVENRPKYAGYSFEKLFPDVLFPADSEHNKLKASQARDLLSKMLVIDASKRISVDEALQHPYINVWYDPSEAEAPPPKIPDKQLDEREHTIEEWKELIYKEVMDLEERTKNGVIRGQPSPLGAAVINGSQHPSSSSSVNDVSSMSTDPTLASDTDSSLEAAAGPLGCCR
Chain of JAK3 (P52333 whole entry): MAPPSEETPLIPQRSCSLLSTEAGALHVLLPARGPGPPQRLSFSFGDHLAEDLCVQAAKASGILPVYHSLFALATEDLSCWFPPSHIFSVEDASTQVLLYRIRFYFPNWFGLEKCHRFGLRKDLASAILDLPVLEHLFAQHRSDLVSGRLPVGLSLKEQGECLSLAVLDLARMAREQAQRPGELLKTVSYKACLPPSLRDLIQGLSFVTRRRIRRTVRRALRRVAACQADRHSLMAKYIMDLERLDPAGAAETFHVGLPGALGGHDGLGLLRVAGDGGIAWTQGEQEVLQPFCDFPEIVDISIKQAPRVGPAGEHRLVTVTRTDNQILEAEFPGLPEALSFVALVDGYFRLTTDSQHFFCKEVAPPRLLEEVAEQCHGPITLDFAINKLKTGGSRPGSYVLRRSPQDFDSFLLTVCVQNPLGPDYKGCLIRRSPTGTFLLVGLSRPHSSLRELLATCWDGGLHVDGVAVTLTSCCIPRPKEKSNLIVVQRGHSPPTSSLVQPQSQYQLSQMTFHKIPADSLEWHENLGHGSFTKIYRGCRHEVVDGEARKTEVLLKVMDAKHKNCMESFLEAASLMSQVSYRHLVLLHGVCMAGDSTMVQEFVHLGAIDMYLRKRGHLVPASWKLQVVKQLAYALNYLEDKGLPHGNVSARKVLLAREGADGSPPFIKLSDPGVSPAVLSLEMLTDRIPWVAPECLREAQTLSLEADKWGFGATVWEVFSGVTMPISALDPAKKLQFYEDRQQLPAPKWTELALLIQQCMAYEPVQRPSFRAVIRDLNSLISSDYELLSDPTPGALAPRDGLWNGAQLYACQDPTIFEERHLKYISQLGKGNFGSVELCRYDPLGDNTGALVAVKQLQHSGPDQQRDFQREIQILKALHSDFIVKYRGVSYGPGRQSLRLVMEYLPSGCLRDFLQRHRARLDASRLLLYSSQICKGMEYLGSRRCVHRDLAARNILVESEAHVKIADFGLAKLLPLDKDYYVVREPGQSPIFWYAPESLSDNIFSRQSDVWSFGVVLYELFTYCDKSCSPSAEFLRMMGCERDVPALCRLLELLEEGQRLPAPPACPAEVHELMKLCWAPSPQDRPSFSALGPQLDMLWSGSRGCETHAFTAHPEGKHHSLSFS
Chain of IRAK1 (P51617 whole entry): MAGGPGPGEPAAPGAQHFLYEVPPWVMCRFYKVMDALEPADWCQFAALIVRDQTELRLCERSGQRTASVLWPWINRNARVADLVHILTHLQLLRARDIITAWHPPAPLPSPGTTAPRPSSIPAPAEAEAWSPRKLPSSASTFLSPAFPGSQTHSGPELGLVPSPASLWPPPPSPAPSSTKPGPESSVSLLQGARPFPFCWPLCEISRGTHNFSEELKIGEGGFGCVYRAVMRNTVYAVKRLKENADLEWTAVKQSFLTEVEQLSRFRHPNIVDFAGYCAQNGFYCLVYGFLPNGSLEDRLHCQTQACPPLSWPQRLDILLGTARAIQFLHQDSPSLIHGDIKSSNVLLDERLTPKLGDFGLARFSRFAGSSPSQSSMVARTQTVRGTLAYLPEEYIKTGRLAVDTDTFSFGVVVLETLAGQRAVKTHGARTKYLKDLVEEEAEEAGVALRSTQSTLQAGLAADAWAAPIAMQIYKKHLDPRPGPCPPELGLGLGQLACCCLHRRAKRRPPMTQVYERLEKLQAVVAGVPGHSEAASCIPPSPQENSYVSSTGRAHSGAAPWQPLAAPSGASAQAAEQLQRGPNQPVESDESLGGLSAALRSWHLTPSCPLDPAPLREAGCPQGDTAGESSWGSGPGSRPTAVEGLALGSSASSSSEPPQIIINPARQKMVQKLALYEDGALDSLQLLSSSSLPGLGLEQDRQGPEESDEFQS
Chain of MAPK1 (ERK2) (P28482 whole entry): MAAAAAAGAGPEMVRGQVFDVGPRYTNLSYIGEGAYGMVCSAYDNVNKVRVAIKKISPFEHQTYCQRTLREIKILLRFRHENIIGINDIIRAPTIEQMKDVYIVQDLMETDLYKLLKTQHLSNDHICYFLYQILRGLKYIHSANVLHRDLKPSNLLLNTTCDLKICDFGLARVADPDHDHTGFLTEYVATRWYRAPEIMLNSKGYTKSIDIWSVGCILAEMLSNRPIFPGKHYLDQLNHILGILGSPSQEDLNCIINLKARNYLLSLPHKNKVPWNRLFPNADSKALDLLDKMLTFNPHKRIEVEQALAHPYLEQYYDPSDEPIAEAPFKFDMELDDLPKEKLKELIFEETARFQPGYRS
Chain of BRAF V599E (P15056 416-766 V600E limits assumed): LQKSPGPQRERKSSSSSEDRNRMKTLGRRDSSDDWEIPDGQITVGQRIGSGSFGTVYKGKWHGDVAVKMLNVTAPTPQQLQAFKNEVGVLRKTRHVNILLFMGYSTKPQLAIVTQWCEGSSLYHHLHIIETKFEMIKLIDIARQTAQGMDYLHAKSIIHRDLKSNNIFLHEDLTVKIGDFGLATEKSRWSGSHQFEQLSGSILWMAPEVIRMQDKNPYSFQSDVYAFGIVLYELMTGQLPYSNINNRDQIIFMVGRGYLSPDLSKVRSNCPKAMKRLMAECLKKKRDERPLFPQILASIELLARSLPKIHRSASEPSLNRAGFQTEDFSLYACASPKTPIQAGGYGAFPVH
Chain of AURKB (Aurora B) (Q96GD4 whole entry): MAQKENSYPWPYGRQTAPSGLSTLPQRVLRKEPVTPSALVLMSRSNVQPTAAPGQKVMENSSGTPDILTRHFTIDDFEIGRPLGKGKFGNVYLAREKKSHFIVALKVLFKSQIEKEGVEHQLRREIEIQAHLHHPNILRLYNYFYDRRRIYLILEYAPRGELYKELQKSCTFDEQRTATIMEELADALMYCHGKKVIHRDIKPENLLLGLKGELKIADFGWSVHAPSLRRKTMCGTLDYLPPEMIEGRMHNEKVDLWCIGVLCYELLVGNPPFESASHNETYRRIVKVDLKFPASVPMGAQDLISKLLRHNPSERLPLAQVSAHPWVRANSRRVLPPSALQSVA

Regarding `CC1(Oc2ccc3[nH]nc(-c4cc(N5CCOCC5)ncn4)c3c2)CC1` [Example 1], the “percent inhibition IRAK1” value at IRAK1 is recorded as 23%. Also, the “percent inhibition CLK2” value at CLK2 is given as 57%. The “percent inhibition AURKB (Aurora B)” value at AURKB (Aurora B) is on record as 28%. For the same compound, the “percent inhibition JAK3” value on JAK3 was 7%. The “percent inhibition CHEK2 (CHK2)” value on CHEK2 (CHK2) was found to be 21%. Besides, the “percent inhibition CDK1/cyclin B” value on CDK1/cyclin B is 10%. On BRAF V599E, the “percent inhibition BRAF V599E” value was 24%. Moreover, on MAPK1 (ERK2), the “percent inhibition MAPK1 (ERK2)” value is listed as 8%. The “percent inhibition MAPK8 (JNK1)” value at MAPK8 (JNK1) is listed as 56%. Besides, the “percent inhibition DYRK1A” value on DYRK1A amounted to 16%.
As to `CO[C@H]1CCN(c2cc(-c3n[nH]c4ccc(OC5(C)CC5)cc34)ncn2)C1` [Example 12], on IRAK1, the “percent inhibition IRAK1” value was found to be 31%. Further, the “percent inhibition CLK2” value on CLK2 turned out to be 53%. The “percent inhibition AURKB (Aurora B)” value on AURKB (Aurora B) amounted to 37%. For the same compound, the “percent inhibition JAK3” value on JAK3 is given as 12%. Further, the “percent inhibition CHEK2 (CHK2)” value at CHEK2 (CHK2) is 17%. In addition, the “percent inhibition CDK1/cyclin B” value at CDK1/cyclin B is given as 43%. On BRAF V599E, the “percent inhibition BRAF V599E” value worked out at 11%. At MAPK1 (ERK2), the “percent inhibition MAPK1 (ERK2)” value turned out to be 10%. Besides, the “percent inhibition MAPK8 (JNK1)” value at MAPK8 (JNK1) worked out at 40%. In addition, the “percent inhibition DYRK1A” value at DYRK1A is recorded as 5%.
Regarding `C[C@@H]1CN(c2cc(-c3n[nH]c4ccc(OC5(C)CC5)cc34)ncn2)C[C@H](C)O1` [Example 51], the “percent inhibition IRAK1” value on IRAK1 is recorded as −15%. Further, the “percent inhibition CLK2” value on CLK2 is 55%. Moreover, the “percent inhibition AURKB (Aurora B)” value at AURKB (Aurora B) is 16%. The “percent inhibition JAK3” value at JAK3 was determined as 7%. For the same compound, at CHEK2 (CHK2), the “percent inhibition CHEK2 (CHK2)” value is given as 15%. Besides, the “percent inhibition CDK1/cyclin B” value at CDK1/cyclin B is 1%. Moreover, at BRAF V599E, the “percent inhibition BRAF V599E” value was found to be 10%. At MAPK1 (ERK2), the “percent inhibition MAPK1 (ERK2)” value is recorded as −4%. Further, the “percent inhibition MAPK8 (JNK1)” value at MAPK8 (JNK1) is on record as 0%. Also, at DYRK1A, the “percent inhibition DYRK1A” value turned out to be 4%.
